“Also recorded” adds a separate entry of the source. Where two headings read alike, the source gives them in different places.
Legend:
HIF-1a [1] = test: HIF-1a induction in digitonin-permeabilized human glioma cells (U87, U251); assay type: cell-based; conditions: 1 mM ATP
HIF-1a [2] = test: as above; assay type: cell-based; conditions: 1 mM doses
Experimental: We determined the ability of each shown structure to induce HIF by exposing digitonin-permeabilized human glioma cells (U87, U251) to 1 mM doses.
At four hours, ATP levels were measured in cell extracts using the luciferase method.
(§1) In order to investigate the mechanism of action of the 2-oxoacid HIF inducers that we identified we first determined their effects upon cellular ATP levels. […] As shown in the scheme in FIG. 1, cellular levels of HIF-1a can be elevated by blockade of proteasomal activity, ubiquitinylation, or prolyl hydroxylation. Inhibition of the proteasome by lactacystin beta-lactone (Lbl) leads to accumulation of HIF-1a in its polyubiquitinylated form which generally appears as a smear of higher molecular weight species on western blots. […] Cellular accumulation and nuclear translocation of HIF-1a can also be studied via immunohistochemistry. For this purpose we utilized U251 cells which are more adherent to cell culture dishes that the U87 cells.

HIF-1a protein [3] = test: HIF-1a levels in nuclear extracts of U87 glioma cells (western blot); assay type: cell-based, human; conditions: for Effect on induction of HIF-1a by glucose (Krebs buffer): 50 μM IAA, 1 mM 4-CIN, NAD or NADH 3 mM each, catalase 1000 and 2000 units/ml; for HIF-1a accumulation, glucose replaced with metabolite: glucose-free Krebs, 3 mM concentrations
Experimental: (A) U87 glioma cells cultured in DMEM were switched to Krebs buffer containing 5.5 mM glucose (Glc) and then evaluated for nuclear HIF-1a levels at various times by western blot analysis. (B) HIF-1a levels were measured after four hours incubation of cells in Krebs buffer containing the indicated glucose concentrations or with 5.5 mM 2-deoxyglucose (2-DG) substituted for glucose. (C) HIF-1a levels were measured in U87 cells cultured in glucose-free Krebs buffer following treatment for four hours under normoxia (21% oxygen) hypoxia (1% oxygen) or with 150 μm desferrioxamine (DFO). (D) Induction of HIF-1a by glucose was monitored in the presence of 50 μM IAA or 1 mM 4-CIN. […] Results are representative of experiments repeated at least three times.
Similar measurements were made in the presence of 50 μM IAA or in glucose-free Krebs buffer. […] HIF-1a induction by four hours treatment with 5.5 mM glucose-containing Krebs (Glc) is shown for comparison. (E) Digitonin-permeabilized cells were treated with 1% oxygen or Krebs containing either 5.5 mM glucose or 2 mM pyruvate in the presence of 50 μM IAA. Permeabilized cell in lanes 5 and 6 were treated with 3 mM NAD or NADH respectively in glucose free Krebs. Nuclear HIF-1a levels were determined four hours later. (F) HIF-1a levels were determined after four hour treatment of cells in glucose-free Krebs (lane 1) or 5.5 mM Glucose containing Krebs. […] (H) To measure the decay of the HIF-1a protein, HIF-1a measurements were made after four hour treatment under hypoxia (lane 1), four hours hypoxia followed by 30 minutes normoxia (lane 2), four hour treatment with 150 μM DFO (lane 3), four hours DFO followed by addition of 100 μM CHX for one hour (lane 4), four hours treatment with 2 mM pyruvate (lane 5), and four hours pyruvate followed by addition of 100 μM CHX for one hour (lane 6). (H) HIF-1a levels were determined in digitonin-permeabilized cells treated for four hour with Krebs containing no glucose (lane 1), 1 mM pyruvate (lane 2), or 1 mM pyruvate and 10 mM 2-OG (lane 3).
In order to resolve the biochemical mechanisms underlying this phenomenon, we studied the human glioma cell line U-87 under conditions of carefully defined culture media. Thus we studied these cells while culturing them in freshly prepared Krebs buffer, all components of which were known to us.
To precisely define the glucose metabolite mediating HIF-1a accumulation, we utilized pharmacological inhibitors of glycolysis as well as the direct addition of different glucose metabolites to cells (FIG. 4).

HPH-1 [4] = target: T1, HPH-1 (Homo sapiens, UniProt Q9H6Z9); conditions: 20 mM competitor, ^35S-HPH-1, total binding
Experimental: Following four further washes radiolabel associated with the pellets was measured via scintillation counting.
We also prepared ^35S-labeled HPH homologues from expression plasmids using the rabbit reticulocyte culture system (Bruick et al. (2001) Science 294, 1337-1340). The 2-OG column allowed us to investigate the binding of ^35S-HPH as well as potential competitors of binding.

HPH-1 [5] = target: T1, HPH-1; test: ^35S-pVHL capture assay, HPH-1; assay type: biochemical; design: made in house; host or cells: rabbit reticulocyte in vitro translation from expression plasmids; conditions: assay optimization shown for HPH-1, dose curves
Experimental: After incubating the peptide with the HPHs and the indicated reagents, ^35S-pVHL was added followed by addition of streptavidin-coated beads to pull down the HIF-1a peptide. The reaction was pelleted, the pellet was washed and then solubilized for SDS-PAGE analysis followed by autoradiography to reveal the captured ^35S-pVHL. Using in vitro translated HPH homologues we first optimized assay conditions with respect to the required HPH substrates and co-factors. […] Conditions: ascorbate=2 mM, 2-OG=2 mM, DTT=1 mM. […] In all assays 5 μl (about 20 ng) of enzyme and 1 μg of peptide was utilized.
Ascorbate concentrations were varied as indicated and OAA or Pyr were added where indicated at 1 mM.
After incubating 1 μg amount of the peptide with in vitro translated HPH and the indicated reagents, ^35S-pVHL was added followed by the addition of Streptavidin-coated beads to pull down the HIF-1a peptide. The reaction was pelleted, and the pellet was washed and solubilized for SDS-PAGE analysis followed by autoradiography to reveal the captured ^35S-pVHL. Using each of the in vitro translated HPH homologues we first optimized assay conditions with respect to the required HPH substrates and co-factors.

HRE containing promoter = test: HRE-luciferase reporter in U251 cells; assay type: cell-based, human
Excerpt: FIG. 18: 2-oxoacids activate HIF-mediated gene expression in human cell lines Effective gene expression by HIF not only involves HIF protein stabilization via inhibition of HPH enzymes but also HIF-1 binding to DNA, inhibition of FIH-1 activity, and gene transcription (see FIG. 1). (A) Glioma cells used in our studies express FIH-1 as assessed using RT-PCR. […] Expression of beta-actin, a housekeeping gene not under HIF regulation is not affected by pyruvate. […] (E) U373 cell were transfected with a green fluorescent protein (GFP) construct under the control of an HIF regulatory element (HRE) containing promoter and then cultured for eight hours in glucose-free medium under the indicated conditions. […] U251 cells stably transfected with a luciferase construct under the control of an HRE containing promoter were cultured for six hours in glucose free Krebs with the following conditions: 1=control, 2=1% oxygen, 3=pyruvate (2 mM), 4=OAA (2 mM), 5=Ethylpyruvate (2 mM), 6=Glucose (5.5 mM), 7=DMOG (0.5 mM), 8=Lactacystin-beta lactone ([…]).
FIG. 19: HIF-mediated gene expression is selectively reversed by ascorbate U251 cells stably expressing HRE-luciferase were cultured in glucose-free Krebs buffer with the indicated conditions for eight hours. Pyruvate, oxaloacetate, and DMOG were added at 1 mM each.
Effective gene expression by HIF not only involves HIF protein stabilization via inhibition of HPH enzymes but also HIF-1 binding to DNA, inhibition of FIH-1 activity, and gene transcription. The human gliomas that we utilized for most of our studies all express mRNA for FIH-1 (FIG. 18A). […] To directly assess activation of gene containing an HRE regulated promoter by the glucose metabolites pyruvate and oxaloacetate, we used U373 glioma cells transfected with an HRE-green fluorescent (HRE-GFP) construct that responds to HIF activation.

HPH = HPH activity of extracts of pretreated U251 cells (^35S-pVHL pulldown); assay type: cell-based, human; conditions: four hours, 1 mM pyruvate or oxaloacetate, DMOG
Experimental: FIG. 17: Inactivation of cellular HPH activity by pyruvate and oxaloacetate U251 cells were cultured for four hours in glucose-free Krebs buffer with or without the indicated additions. Whole cell extracts were then prepared and used as a source of HPH enzyme to hydroxylate a biotinylated peptide from the HIF-1a ODD containing proline 564. Proline hydroxylation was measured by the ability of streptavidin coated beads to pulldown the hydroxyproline ^35S-pVHL complex as in FIGS. 12-14.
To directly determine whether HPH activity had been inactivated by pyruvate or oxaloacetate treatment, we evaluated the ability of U251 cell extracts from pyruvate or oxaloacetate treated cells to hydroxylate HIF-1a peptide using the ^35S-pVHL pulldown assay (Ivan et al. (2002) Proc. Natl. Acad. Sci. USA 99, 13459-13466). In these experiments, ascorbate was omitted from the in vitro portion of the assay.

HIF-1a [6] = test: HIF-1a decay after washout of the inducer in U251 and U87 cells; assay type: cell-based, human; conditions: 1 mM pyruvate four hours, then glucose free Krebs in normoxia
Experimental: FIG. 16: Ascorbate reverses the prolonged HIF-1a accumulation (A) Comparison of HIF-1a decay in U251 following induction with either hypoxia or pyruvate. U251 cells were cultured in glucose-free Krebs under hypoxia or with 1 mM pyruvate in normoxia for four hours. Following this cells were switched to glucose free Krebs in normoxia and fixed in formaldehyde at the indicated times. Cells were then stained for HIF-1a immunoreactivity. Note the rapid decay of nuclear HIF-1a staining after having been induced by hypoxia versus pyruvate. (B) U87 cell treated for four hours under hypoxia show prominent HIF-1a induction which is completely degraded by thirty minutes of re-oxygenation. U87 cells were treated in glucose-free Krebs buffer with or without 1 mM pyruvate or oxaloacetate.
HPH-2 has been reported to constitute the major HPH activity of most cells. We therefore evaluated the ability of ascorbate to prevent HIF-1a accumulation by pyruvate and oxaloacetate in living cells. […] To test this possibility we compared the reversibility of HIF-1a accumulation following induction with either hypoxia, pyruvate, or oxaloacetate. The rationale for these experiments stems from the well-known reversible inhibition of HPH activity by hypoxia (see FIG. 1). Thus HIF-1a accumulation and HIF activation during hypoxia is rapidly reversed upon re-oxygenation. […]

HIF-1a protein [7] = test: Nuclear HIF-1a accumulation in glioma cells by immunohistochemistry; assay type: cell-based, human; conditions: 2 mM, four hours, glucose-free Krebs buffer, Lbl 20 μM
Excerpt: Cells were then washed, fixed and stained for HIF-1a protein.
as §1

T1 sequence (Q9H6Z9 whole entry): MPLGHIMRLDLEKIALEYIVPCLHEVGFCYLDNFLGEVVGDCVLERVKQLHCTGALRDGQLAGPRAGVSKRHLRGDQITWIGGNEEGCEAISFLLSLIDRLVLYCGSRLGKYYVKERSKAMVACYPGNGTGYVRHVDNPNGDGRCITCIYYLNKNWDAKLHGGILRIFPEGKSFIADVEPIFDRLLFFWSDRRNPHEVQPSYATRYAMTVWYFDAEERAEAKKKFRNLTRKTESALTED

Nc1ncnc2c1ncn2[C@@H]1O[C@H](COP(=O)(O)OP(=O)(O)OP(=O)(O)O)[C@@H](O)[C@H]1O [ATP]
HIF-1a levels after direct addition of ATP (HIF-1a [1]): did not raise basal HIF-1a levels; also recorded: had no effect on HIF-1a levels

O=C(O)CC(O)C(=O)O (stereo not shown) [malate]
Ability to induce HIF (HIF-1a accumulation), structure-activity (HIF-1a [2]): ineffective

O=CC[C@@H](O)[C@H](O)[C@H](O)CO [2-deoxyglucose]
HIF-1a levels (HIF-1a protein [3]; Krebs buffer with glucose or 5.5 mM 2-deoxyglucose, four hours, normoxia): could not be mimicked

O=C(O)CCC(=O)C(=O)O [2-oxoglutarate]
Displacement of HPH binding to the 2-oxoglutarate column (HPH-1 [4]): Nearly half of the total binding of HPH to the 2-oxoglutarate column could be displaced | Displacement of HPH binding to the 2-oxoglutarate column (HPH-1 [4]; listed as 2-OG): could displace this binding | Requirement of substrates and co-factors for HPH activity (HPH-1 [5]): absolutely required for activity | Reversal of HRE-luciferase activation by pyruvate or oxaloacetate (HRE containing promoter; eight hours, oxaloacetate 1 mM, 2-oxoglutarate 10 mM): No reversal was seen

COC(=O)CNC(=O)C(=O)OC [DMOG, dimethyloxalylglycine]
Ability to induce HIF (HIF-1a accumulation), structure-activity (HIF-1a [2]): consistently enhanced HIF-1a levels | HPH activity of extracts of pretreated cells (HPH): No such pretreatment-induced inhibition; also recorded: no such loss of HPH activity

NC(=O)C1=CN([C@@H]2O[C@H](COP(=O)(O)OP(=O)(O)OC[C@H]3O[C@@H](n4cnc5c(N)ncnc54)[C@H](O)[C@@H]3O)[C@@H](O)[C@H]2O)C=CC1 [NADH]
Effect on induction of HIF-1a by glucose (Krebs buffer) (HIF-1a protein [3]): neither NAD or NADH (3 mM each) had any effect on this induction

O=C(O)C=Cc1ccc(O)cc1 [Cinnamate, 4-hydroxycinnamate]
Effect on induction of HIF-1a by glucose (Krebs buffer) (HIF-1a protein [3]): did not prevent the effect of Krebs buffer on HIF-1a accumulation

Catalase
Effect on induction of HIF-1a by glucose (Krebs buffer) (HIF-1a protein [3]): had no effect

O=S(=O)([O-])[O-].[Fe+2] [Iron, iron sulfate]
Requirement of substrates and co-factors for HPH activity (HPH-1 [5]): absolutely required up to a maximal of about 100 μM

NC(=O)c1ccc[n+]([C@@H]2O[C@H](COP(=O)([O-])OP(=O)(O)OC[C@H]3O[C@@H](n4cnc5c(N)ncnc54)[C@H](O)[C@@H]3O)[C@@H](O)[C@H]2O)c1 [NAD]
Effect on induction of HIF-1a by glucose (Krebs buffer) (HIF-1a protein [3]): neither NAD or NADH (3 mM each) had any effect on this induction

CC(=O)C(=O)O [pyruvate]
Persistence of HIF-1a accumulation after washing out (HIF-1a [6]): > 40 min

CCOC(=O)C(C)=O [ethylpyruvate, Ethylpyruvate]
Ability to induce HIF (HIF-1a accumulation), structure-activity (HIF-1a [2]): identified as HIF-1 activators | HIF-1a accumulation, glucose replaced with metabolite (HIF-1a protein [3]; four hours): as pronounced as those of the known 2-oxoglutarate antagonist dimethyloxalylglycine (DMOG) | HRE-luciferase expression (HRE containing promoter; six hours, glucose free Krebs, pyruvate, OAA, Ethylpyruvate 2 mM, Lactacystin-beta lactone 20 mM): prominent activation of luciferase gene expression

CC(C)CC(=O)C(=O)O [alpha-ketoisocaproate]
Ability to induce HIF (HIF-1a accumulation), structure-activity (HIF-1a [2]): capable of stimulating HIF-1a accumulation

C[C@H](N)C(=O)O [alanine]
HIF-1a accumulation, glucose replaced with metabolite (HIF-1a protein [3]; four hours): without effect

O=C(O)CCCC(=O)C(=O)O [alpha-ketoadipate]
Ability to induce HIF (HIF-1a accumulation), structure-activity (HIF-1a [2]): ineffectiveness

CCC(=O)C(=O)O [alpha-ketobutyrate]
Ability to induce HIF (HIF-1a accumulation), structure-activity (HIF-1a [2]): ineffectiveness

O=C(O)CC(O)(CC(=O)O)C(=O)O [citrate]
HIF-1a accumulation, glucose replaced with metabolite (HIF-1a protein [3]; four hours): without effect

lactate
HIF-1a accumulation, glucose replaced with metabolite (HIF-1a protein [3]; four hours): activate HIF-1a directly

NC(=O)CI [Iodoacetamide]
Effect on induction of HIF-1a by glucose (Krebs buffer) (HIF-1a protein [3]): completely blocked the ability of Krebs buffer to stimulate HIF-1a accumulation

succinate
Displacement of HPH binding to the 2-oxoglutarate column (HPH-1 [4]): could not; also recorded: but not by 20 mM succinate | Nuclear HIF-1a accumulation (immunostaining) (HIF-1a protein [7]): ineffectiveness | Nuclear HIF-1a accumulation (immunostaining) (HIF-1a protein [7]; listed as Succinate): does not affect HIF-1a accumulation | HIF-1a accumulation, glucose replaced with metabolite (HIF-1a protein [3]; four hours): without effect

CC[C@H](C)C(=O)C(=O)O [alpha-keto-beta-methylvalerate]
Ability to induce HIF (HIF-1a accumulation), structure-activity (HIF-1a [2]): capable of stimulating HIF-1a accumulation

CC(C)C(=O)C(=O)O [alpha-ketoisovalerate]
Ability to induce HIF (HIF-1a accumulation), structure-activity (HIF-1a [2]): capable of stimulating HIF-1a accumulation
